Results published in US7166597B2, “Fused pyrazole derivatives being protein kinase inhibitors” (Glaxo Group Limited, priority 2000, dated 2007).
Read-outs that look alike come from different tables or passages of the source.

Key:
p38 kinase = target: T1, p38 kinase (Homo sapiens, UniProt Q16539); test: p38 Kinase Assay; assay type: biochemical
T1 construct: GST (N); made in house; host or cells: E. coli
Description: The peptide substrate used in the p38 assay was biotin-IPTSPITTTYFFFRRR-amide. The p38 and MEK6 proteins were purified to homogeneity from E. coli expression systems. The fusion proteins were tagged at the N-terminus with Glutathione-S-Transferase (GST). The maximum activation was achieved by incubating 20 uL of a reaction mixture of 30 nM MEK6 protein and 120 nM p38 protein in the presence of 1.5 uM peptide and 10 mM Mg (CH3CO2)2 in 100 mM HEPES7 pH 7.5, added to 15 uL of a mixture of 1.5 uM ATP with 0.08 uCi [g-^33P]ATP, with or without 15 uL of inhibitor in 6% DMSO. The controls were reactions in the presence (negative controls) or absence (positive controls) of 50 mM EDTA. Reactions were allowed to proceed for 60 min at room temperature and quenched with addition of 50 uL of 250 mM EDTA and mixed with 150 uL of Streptavidin SPA beads (Amersham) to 0.5 mg/reaction. The Dynatech Microfluor white U-bottom plates were sealed and the beads were allowed to settle overnight. The plates were counted in a Packard TopCount for 60 seconds. IC50 values were obtained by fitting raw data to % I=100*(1−(I−C2)/(C1−C2)), where I was […], C1 was positive control, and C2 was negative control.

[1] = target: T2, JNK3 kinase (Jnk-3alpha-2) (Homo sapiens, UniProt P53779); test: JNK3 Kinase Assay; assay type: biochemical
T2 construct: Jnk-3alpha-2 (as a truncated construct, residues 39 to 224) was expressed in E. coli as a GST fusion protein; Following purification the GST portion was removed by thrombin cleavage; fused on or other part: An N-terminal GST tag was used for expression and removed by thrombin cleavage before the assay
T2 sequence (P53779 39-402 limits assumed): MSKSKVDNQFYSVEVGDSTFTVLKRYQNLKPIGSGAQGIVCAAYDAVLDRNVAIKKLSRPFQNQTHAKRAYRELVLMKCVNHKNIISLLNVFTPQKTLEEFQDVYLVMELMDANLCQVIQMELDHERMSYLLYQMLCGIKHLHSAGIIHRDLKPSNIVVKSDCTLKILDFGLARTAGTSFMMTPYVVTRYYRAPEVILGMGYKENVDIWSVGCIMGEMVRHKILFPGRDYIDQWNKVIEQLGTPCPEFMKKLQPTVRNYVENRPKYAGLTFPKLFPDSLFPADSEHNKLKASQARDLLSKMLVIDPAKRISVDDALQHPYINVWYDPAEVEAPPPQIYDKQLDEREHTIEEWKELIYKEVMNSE
Description: JNK3 Kinase Assay Jnk-3alpha-2 (as a truncated construct, residues 39 to 224) was expressed in E. coli as a GST fusion protein. Following purification the GST portion was removed by thrombin cleavage. The enzyme was stored at −80° C. Substrate c-Jun was expressed as a GST fusion protein including a signal peptide (biotinylation site) in E. coli. Following purification the substrate was biotinylated on a specific lysine in the signal peptide using biotin ligase. Prior to assay Jnk-3 was pre-activated by incubation with MgATP. The enzyme (10 nM) was screened in 40 mM HEPES (pH 7.4), 150 mM NaCl, 20 mM glycerophosphate, 1 mM DTT, 0.2 mM vanadate, 200 nM biotin-c-Jun, 5 mM MgCl2 and 10 uM ATP. Inhibitors were added over a conc range of from 0 to 10 uM in DMSO (fc 3%). The reaction was stopped by the addition of 25 mM EDTA. Phospho-c-Jun was detected using homogeneous time resolved fluorescence (HTRF) with a Eu-labelled antiphosphoserine (Serine 73) and streptavidin APC.

[2] = Table 9, p38 assays using Assay II, read-out: p38 IC50
[3] = Table 8, compounds wherein Z is N, read-out: p38 kinase (inhibition of p38 kinase, IC50)

T1 sequence (Q16539 whole entry): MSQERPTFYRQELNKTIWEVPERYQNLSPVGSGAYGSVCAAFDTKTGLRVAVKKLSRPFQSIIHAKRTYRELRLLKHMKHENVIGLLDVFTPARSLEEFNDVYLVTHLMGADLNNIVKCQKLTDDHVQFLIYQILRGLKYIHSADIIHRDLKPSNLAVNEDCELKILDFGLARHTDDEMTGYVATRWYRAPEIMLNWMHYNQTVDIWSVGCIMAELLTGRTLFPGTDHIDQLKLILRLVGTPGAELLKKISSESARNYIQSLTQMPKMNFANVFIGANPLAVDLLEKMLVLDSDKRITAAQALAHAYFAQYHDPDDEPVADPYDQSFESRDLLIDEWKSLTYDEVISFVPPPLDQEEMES

| SMILES | IC50 (p38 kinase; [2]) | IC50 ([1]; Table 9, read-out: JNK3 IC50) | further results |
| --- | --- | --- | --- |
| CCN(CC)CCNc1nccc(-c2c(-c3cccc(Cl)c3)nn3cc(C(F)(F)F)ccc23)n1 [Example 96, N-{4-[2-(3-chlorophenyl)-6-(trifluoromethyl)pyrazolo[1,5-a]pyridin-3-yl]pyrimidin-2-yl}-N-[2-(diethylamino)ethyl]amine] | 100 to 1000 nM | – | – |
| CCN(CC)CCCCNc1nccc(-c2c(-c3ccc(F)c(Cl)c3)nn3cc(C(F)(F)F)ccc23)n1 [Example 93, N-{4-[2-(3-chloro-4-fluorophenyl)-6-(trifluoromethyl)pyrazolo-[1,5-a]pyridin-3-yl]pyrimidin-2-yl}-N-[4-(diethylamino)butyl]amine] | 10 to 100 nM | 100 to 1000 nM | – |
| FC(F)(F)c1ccc2c(-c3ccnc(NCCN4CCCC4)n3)c(-c3cccc(Cl)c3)nn2c1 [Example 105, N-{4-[2-(3-chlorophenyl)-6-(trifluoromethyl)pyrazolo[1,5-a]pyridin-3-yl]pyrimidin-2-yl}-N-(2-pyrrolidin-1-ylethyl)amine] | 100 to 1000 nM | 1000 to 10000 nM | – |
| CCN(CC)CCNc1nccc(-c2c(-c3ccc(C(F)(F)F)cc3)nn3cc(C(F)(F)F)ccc23)n1 [Example 95, N-[2-(diethylamino)ethyl]-N-(4-{6-(trifluoromethyl)-2-[4-(trifluoromethyl)phenyl]pyrazolo[1,5-a]pyridin-3-yl}pyrimidin-2-yl)amine] | 1000 to 10000 nM | – | – |
| Fc1ccc(-c2nn3ccccc3c2-c2ccnc(NC3CC3)n2)cc1 [Example 61, N-Cyclopropyl-4-[2-(4-fluorophenyl)pyrazolo[1,5-a]pyridin-3-yl]-2-pyrimidinamine] | – | – | IC50 ([1]; Table 8, read-out: JNK3 kinase (inhibition of JNK3 kinase, IC50)): < 500 nM; IC50 (p38 kinase; [3]): < 500 nM |
| Fc1ccc(-c2nn3cc(C(F)(F)F)ccc3c2-c2ccnc(NCCCN3CCCCC3)n2)cc1Cl [Example 113, N-{4-[2-(3-chloro-4-fluorophenyl)-6-(trifluoromethyl)pyrazolo[1,5-a]pyridin-3-yl]pyrimidin-2-yl}-N-(3-piperidin-1-ylpropyl)amine] | 100 to 1000 nM | 100 to 1000 nM | – |
| FC(F)(F)c1ccc(-c2nn3cc(C(F)(F)F)ccc3c2-c2ccnc(NCCN3CCCC3)n2)cc1 [Example 103, N-(2-pyrrolidin-1-ylethyl)-N-(4-{6-(trifluoromethyl)-2-[4-(trifluoromethyl)phenyl]pyrazolo[1,5-a]pyridin-3-yl}pyrimidin-2-yl)amine] | 1000 to 10000 nM | – | – |
| CCCN(CCC)CCNc1nccc(-c2c(-c3ccc(F)c(Cl)c3)nn3cc(C(F)(F)F)ccc23)n1 [Example 98, N-{4-[2-(3-chloro-4-fluorophenyl)-6-(trifluoromethyl)pyrazolo-[1,5-a]pyridin-3-yl]pyrimidin-2-yl}-N-[2-(dipropylamino)ethyl]amine] | 100 to 1000 nM | 1000 to 10000 nM | – |
| Fc1ccc(-c2nn3cc(C(F)(F)F)ccc3c2-c2ccnc(NCCN3CCCCC3)n2)cc1Cl [Example 109, N-{4-[2-(3-chloro-4-fluorophenyl)-6-(trifluoromethyl)pyrazolo[1,5-a]pyridin-3-yl]pyrimidin-2-yl}-N-(2-piperidin-1-ylethyl)amine] | 100 to 1000 nM | 1000 to 10000 nM | – |
| Nc1nccc(-c2c(-c3ccc(F)cc3)nn3cc(C(F)(F)F)ccc23)n1 [Example 65, 4-[2-(4-Fluorophenyl)-6-trifluoromethylpyrazolo[1,5-a]pyridin-3-yl]-2-pyrimidinamine] | – | – | IC50 (p38 kinase; [3]): < 500 nM |
| CC(C)N(CCNc1nccc(-c2c(-c3ccc(F)c(Cl)c3)nn3cc(C(F)(F)F)ccc23)n1)C(C)C [Example 100, N-{4-[2-(3-chloro-4-fluorophenyl)-6-(trifluoromethyl)pyrazolo-[1,5-a]pyridin-3-yl]pyrimidin-2-yl}-N-[2-(diisopropylamino)ethyl]amine] | 100 to 1000 nM | 1000 to 10000 nM | – |
| CCCN1CCN(CCNc2nccc(-c3c(-c4cccc(Cl)c4)nn4cc(C(F)(F)F)ccc34)n2)CC1 [Example 129, N-{4-[2-(3-chlorophenyl)-6-(trifluoromethyl)pyrazolo[1,5-a]pyridin-3-yl]pyrimidin-2-yl}-N-[2-(4-propylpiperazin-1-yl)ethyl]amine] | 10 to 100 nM | 100 to 1000 nM | – |
| CN(C)CCCNc1nccc(-c2c(-c3ccc(F)cc3)nn3cc(C(F)(F)F)ccc23)n1 [Example 87, N-[3-(dimethylamino)propyl]-N-[4-{2-(4-fluorophenyl)-6-(trifluoromethyl)pyrazolo[1,5-a]pyridin-3-yl}pyrimidin-2-yl]amine] | 100 to 1000 nM | 1000 to 10000 nM | – |
| CCN(CC)CCCCNc1nccc(-c2c(-c3cccc(Cl)c3)nn3cc(C(F)(F)F)ccc23)n1 [Example 94, N-{4-[2-(3-chlorophenyl)-6-(trifluoromethyl)pyrazolo[1,5-a]pyridin-3-yl]pyrimidin-2-yl}-N-[4-(diethylamino)butyl]amine] | 10 to 100 nM | 100 to 1000 nM | – |
| FC(F)(F)c1ccc2c(-c3ccnc(NCCN4CCCCC4)n3)c(-c3cccc(Cl)c3)nn2c1 [Example 110, N-{4-[2-(3-chlorophenyl)-6-(trifluoromethyl)pyrazolo[1,5-a]pyridin-3-yl]pyrimidin-2-yl}-N-(2-piperidin-1-ylethyl)amine] | 100 to 1000 nM | 1000 to 10000 nM | – |
| CN1CCN(CCCNc2nccc(-c3c(-c4ccc(F)c(Cl)c4)nn4cc(C(F)(F)F)ccc34)n2)CC1 [Example 125, N-{4-[2-(3-chloro-4-fluorophenyl)-6-(trifluoromethyl)pyrazolo-[1,5-a]pyridin-3-yl]pyrimidin-2-yl}-N-[3-(4-methylpiperazin-1-yl)propyl]amine] | 10 to 100 nM | 100 to 1000 nM | – |
| FC(F)(F)c1ccc(-c2nn3cc(C(F)(F)F)ccc3c2-c2ccnc(NCCN3CCOCC3)n2)cc1 [Example 119, N-(2-morpholin-4-ylethyl)-N-(4-{6-(trifluoromethyl)-2-[4-(trifluoromethyl)phenyl]pyrazolo[1,5-a]pyridin-3-yl}pyrimidin-2-yl)amine] | 1000 to 10000 nM | – | – |
| FC(F)(F)c1ccc(-c2nn3cc(C(F)(F)F)ccc3c2-c2ccnc(NCCCN3CCOCC3)n2)cc1 [Example 121, N-(3-morpholin-4-ylpropyl)-N-(4-{6-(trifluoromethyl)-2-[4-(trifluoromethyl)phenyl]pyrazolo[1,5-a]pyridin-3-yl}pyrimidin-2-yl)amine] | 1000 to 10000 nM | – | – |
| FC(F)(F)c1ccc(-c2nn3cc(C(F)(F)F)ccc3c2-c2ccnc(NCCN3CCCCC3)n2)cc1 [Example 108, N-(2-piperidin-1-ylethyl)-N-(4-{6-(trifluoromethyl)-2-[4-(trifluoromethyl)phenyl]pyrazolo[1,5-a]pyridin-3-yl}pyrimidin-2-yl)amine] | 1000 to 10000 nM | – | – |
| CCCN(CCC)CCNc1nccc(-c2c(-c3ccc(C(F)(F)F)cc3)nn3cc(C(F)(F)F)ccc23)n1 [Example 97, N-[2-(dipropylamino)ethyl]-N-(4-{6-(trifluoromethyl)-2-[4-(trifluoromethyl)phenyl]pyrazolo[1,5-a]pyridin-3-yl}pyrimidin-2-yl)amine] | 1000 to 10000 nM | – | – |
| NC(=O)c1ccc2c(-c3ccnc(NCCCO)n3)c(-c3ccc(F)cc3)nn2c1 [Example 76, 2-(4-Fluorophenyl)-3-(4-(2-(3-hydroxypropyl)amino)pyrimidinyl)-6-pyrazolo-[1,5-a]pyridinylcarboxamide] | – | – | IC50 (p38 kinase; [3]): < 500 nM |
| OCc1ccn2nc(-c3ccc(F)cc3)c(-c3ccncc3)c2c1 [Example 6, 2-(4-Fluorophenyl)-5-hydroxymethyl-3-(4-pyridinyl)pyrazolo[1,5-a]pyridine] | – | – | IC50 (p38 kinase; Table 7, compounds wherein Z is CH, read-out: P38 kinase (inhibition of p38 kinase, IC50)): < 500 nM |
| OCCCNc1nccc(-c2c(-c3ccc(F)cc3)nn3cc(C(F)(F)F)ccc23)n1 [Example 72, 3-(4-[2-(4-Fluorophenyl)-6-trifluoromethylpyrazolo[1,5-a]pyridin-3-yl]-2-pyrimidinylamino)-1-propanol] | – | – | IC50 (p38 kinase; [3]): < 500 nM |
| CN1CCN(CCCNc2nccc(-c3c(-c4ccc(F)cc4)nn4cc(C(N)=O)ccc34)n2)CC1 [Example 79, 2-(4-Fluorophenyl)-3-(4-(2-(3-(4-methylpiperazino)propyl)amino)pyrimidinyl)-6-pyrazolo-[1,5-a]pyridinylcarboxamide] | – | – | IC50 (p38 kinase; [3]): < 500 nM |
